Values quoted from earlier work in patent US20050233013A1, “Methods for enhancing the transport of glucose for balancing blood sugar levels” (priority 2004, published 2005).

System: pancreatic beta cell
Settings: micromolar concentrations; glucose dependent; Sauvaire et al, Diabetes 47:206 (1998)

## C[C@@H]([C@H](C)O)[C@H](N)C(=O)O [major isomer (2S, 3R, 4S), (2S, 3R, 4S)-4-hydroxyisoleucine]
  glucose-induced insulin secretion: stimulate glucose-induced insulin secretion
